According to the NIST ThermoML archive (doi:10.1021/je300799f):

What was measured:
[1] = Liquid; for mass density: 101.3 kPa, Vibrating tube method; for vapor or sublimation pressure: Ebulliometric method (Recirculating still)
[2] = refractive index (Na D-line) (dimensionless); conditions: 298.15 K; 101.33 kPa; Liquid; Standard Abbe refractometry
[3] = xn = mol fraction of the nth substance listed; conditions: 101 kPa, Liquid, Vibrating tube method, x2 = 0

CCCC(=O)OC [methyl butanoate]
[1]
Conditions | mass density [kg/m3] | vapor or sublimation pressure [kPa]
288.15 K | 903.31 | –
298.15 K | 892.31 | –
308.15 K | 881.19 | –
318.15 K | 870.06 | –
328.15 K | 858.8 | –
354.1 K | – | 50
355.47 K | – | 52.5
356.79 K | – | 55
358.1 K | – | 57.5
359.34 K | – | 60
360.56 K | – | 62.5
361.72 K | – | 65
362.84 K | – | 67.5
363.94 K | – | 70
364.99 K | – | 72.5
366.05 K | – | 75
367.04 K | – | 77.5
368.03 K | – | 80
369 K | – | 82.5
370.01 K | – | 85
370.93 K | – | 87.5
371.84 K | – | 90
372.72 K | – | 92.5
373.58 K | – | 95
374.42 K | – | 97.5
375.27 K | – | 100
375.74 K | – | 101.32
376.91 K | – | 105
378.42 K | – | 110
379.91 K | – | 115
381.34 K | – | 120
382.73 K | – | 125
384.07 K | – | 130
385.37 K | – | 135
386.63 K | – | 140
387.87 K | – | 145
389.07 K | – | 150
390.24 K | – | 155
391.38 K | – | 160
392.48 K | – | 165
393.58 K | – | 170
394.64 K | – | 175
395.67 K | – | 180
396.7 K | – | 185
397.68 K | – | 190
398.67 K | – | 195
399.61 K | – | 200
400.54 K | – | 205
401.46 K | – | 210
402.37 K | – | 215
403.25 K | – | 220
404.13 K | – | 225
404.97 K | – | 230
405.81 K | – | 235
406.64 K | – | 240
407.45 K | – | 245
408.26 K | – | 250
409.05 K | – | 255
409.83 K | – | 260
410.58 K | – | 265
411.35 K | – | 270
412.09 K | – | 275
412.83 K | – | 280

Conditions | refractive index
[2] | 1.3851

CCCCCCCCC [nonane]
[1]
Conditions | mass density [kg/m3] | vapor or sublimation pressure [kPa]
288.15 K | 721.65 | –
298.15 K | 713.85 | –
308.15 K | 705.96 | –
318.15 K | 698.06 | –
328.15 K | 690.17 | –
395.53 K | – | 45
397.25 K | – | 47.5
398.89 K | – | 50
400.5 K | – | 52.5
402.04 K | – | 55
403.51 K | – | 57.5
404.94 K | – | 60
406.33 K | – | 62.5
407.66 K | – | 65
408.95 K | – | 67.5
410.24 K | – | 70
411.45 K | – | 72.5
412.64 K | – | 75
413.81 K | – | 77.5
414.94 K | – | 80
416.07 K | – | 82.5
417.16 K | – | 85
418.22 K | – | 87.5
419.24 K | – | 90
420.25 K | – | 92.5
421.24 K | – | 95
422.22 K | – | 97.5
423.18 K | – | 100
423.87 K | – | 101.32
423.9 K | – | 101.32
425.1 K | – | 105
426.76 K | – | 110
428.48 K | – | 115
430.15 K | – | 120
431.71 K | – | 125
433.28 K | – | 130
434.77 K | – | 135
436.25 K | – | 140
437.64 K | – | 145
439.03 K | – | 150
440.38 K | – | 155
441.68 K | – | 160
442.99 K | – | 165
444.25 K | – | 170
445.46 K | – | 175
446.65 K | – | 180
447.83 K | – | 185
448.99 K | – | 190
450.12 K | – | 195
451.2 K | – | 200
452.29 K | – | 205
453.35 K | – | 210
454.41 K | – | 215
455.44 K | – | 220
456.45 K | – | 225
457.45 K | – | 230
458.43 K | – | 235
459.41 K | – | 240
460.35 K | – | 245
461.28 K | – | 250
462.19 K | – | 255
463.08 K | – | 260
463.95 K | – | 265
464.86 K | – | 270
465.73 K | – | 275
466.59 K | – | 280

Conditions | refractive index
[2] | 1.4032

CCCCCCCCC [nonane] + CCCC(=O)OC
[3]
Conditions | mass density [kg/m3]
288.15 K | 721.65
298.15 K | 713.85
308.15 K | 705.96
318.15 K | 698.06
328.15 K | 690.17

CCCCCCCCC [nonane] + CCCC(=O)OCC
[3]
Conditions | mass density [kg/m3]
288.15 K | 721.65
298.15 K | 713.85
308.15 K | 705.96
318.15 K | 698.06
328.15 K | 690.17
